Assay results from publication PMC5893557, “Small tumor necrosis factor receptor biologics inhibit the tumor necrosis factor-p38 signalling axis and inflammation” (Nature Communications, 2018).
Like-named read-outs stand apart in the source and are kept apart here. Residues, ends and D or L forms follow the SMILES beside them. No end group written: not given here.

Key:
human neutrophils = test: TNF70–80-induced lucigenin-dependent chemiluminescence (superoxide) in neutrophils; type: cell-based
Procedure: (§1) Neutrophil superoxide production was measured by an indirect assay involving the reduction of the lucigenin, (9, 9′-bis N-methyl-acridinium nitrate) (Sigma-Aldrich, Castle Hill, NSW, Australia) and measuring the light output by lucigenin-dependant chemiluminescence. […] After incubation, 500 μl of lucigenin (250 μM, final) was added and the final volume was adjusted to 1 ml. The cells were placed in luminometer (Autolumat Plus Model LB 953, Berthold Technologies, Bundoora, VIC, Australia) and the resulting chemiluminescence (in relative light units, RLU) measured. The results are expressed as maximal/peak rate of chemiluminescence produced unless specified otherwise. CR3 expression on neutrophils was measured by flow cytometry using anti-CD11b antibodies. […] After treatment, 2 μl of PE-labelled mouse IgG2a isotype control (Clone X39) or PE-labelled monoclonal anti-CD11b antibody (Clone D12) (both from BD Biosciences, North Ryde, NSW, Australia) was added to neutrophils in 200 μl of Isoton II (BD Biosciences) supplemented with 0.1% (w/v) BSA. After 30 min the cells were washed, fixed with formaldehyde (0.1%) and analysed on a FACScan (BD Biosciences, North Ryde, NSW, Australia). Cytokine (IL-1β and IL-8) mRNA productions were measured by quantitative RT-PCR. Briefly, total RNA was extracted from 1 × 10^6 neutrophils using the TRIzol reagent (Life Technologies Australia Pty, Mulgrave, VIC, Australia) according to the manufacturer’s instructions. RNA was converted to cDNA using iScript cDNA synthesis kit (Bio-rad, Hercules, CA, USA).

[1] = tested on: TNF-rich medium-induced superoxide production in neutrophils; test: TNF-rich medium (RM)-induced chemiluminescence in neutrophils; type: cell-based, human
[2] = target: TNF-induced neutrophil CL production (Homo sapiens, UniProt P01375); details: read-out: IC50, inhibition of TNF-induced CL production; TNF (1 ng/ml) pre-treated with peptide for 30 min, human neutrophils, lucigenin chemiluminescence
Procedure: as §1

TNF = test: Solid phase binding of TNF to coated TNFRI peptide; parameters: species or system human; details: peptide-coated plates, 50 U TNF, biotinylated anti-TNF antibody detection
Procedure: Depending on the experiment, microtitre plates were coated with 100 μl/well of either 3 μg/ml TNFRI198–211 in MilliQ water or TNFRI206–211 or the corresponding scrambled peptide in carbonate-bicarbonate buffer (pH 9.6) overnight at 4 °C and blocked with 1% BSA and 0.05% Tween-20 in PBS for 1 h at 4 °C. In the TNFRI198–211-coated plates, various concentrations of biotinylated TNF70–80 or control peptide were added to triplicate wells and incubated for 3 h at 4 °C. In the TNFRI206–211/scrambled peptide-coated plates, 50 U of TNF was added to triplicate wells, followed by washing with wash buffer (PBS/0.05% Tween-20) and then incubation with 50 μl of 1.5 μg/ml biotinylated monoclonal anti-TNF antibody (clone 2TNF-H33, ThermoScientific, Waltham, MA, USA). The wells from all plates were washed four times with wash buffer, then incubated with 100 μl/well of poly-horseradish peroxidase streptavidin conjugate (1/6000 dilution in 1% BSA and 0.05% Tween-20 in PBS) (ThermoScientific, Waltham, MA, USA) for 45 min at 4 °C. Wells were washed four times with wash buffer and bound enzyme detected by the addition of TMB substrate (Sigma-Aldrich, Castle Hill, NSW, Australia). Absorbance was measured using dual filter at 570/450 nm on a Dynatech MR700 Plate Reader (Guernsey, Channel Islands).

[3] = tested on: CD11b expression in neutrophils; test: TNF-induced CD11b (CR3) expression in neutrophils, flow cytometry; type: cell-based, human; details: TNF (5 ng/ml) pre-treated 20 min with 200 μM peptide unless otherwise specified
Procedure: as §1, with “Briefly, total RNA was extracted from 1 × 10^6 neutrophils using the TRIzol reagent (Life Technologies Australia Pty, Mulgrave, VIC, Australia) according to the manufacturer’s instructions. RNA was converted to cDNA using iScript cDNA synthesis kit (Bio-rad, Hercules, CA, USA).” left out

[4] = target: T1, recombinant human soluble TNFRI (Homo sapiens, UniProt P19438); test: Inhibition of biotin-labelled TNF70–80 binding to immobilised soluble TNFRI; details: tested at 1 mM in the presence of 10 μM biotinylated TNF70–80
T1 construct: rHusTNFRI (22–211), prepared as a chimeric protein; Fc portion of human IgG1; 6x histidine; purchased ProSpec-Tany TechnoGene Ltd (Rehovot, Israel)
T1 sequence (P19438 22-211): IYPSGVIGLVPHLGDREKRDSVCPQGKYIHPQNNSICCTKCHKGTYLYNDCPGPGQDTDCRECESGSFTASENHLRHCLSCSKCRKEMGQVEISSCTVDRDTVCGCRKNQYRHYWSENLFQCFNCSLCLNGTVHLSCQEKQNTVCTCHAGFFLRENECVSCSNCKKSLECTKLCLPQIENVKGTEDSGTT
Procedure: Microtitre plates were coated with 100 μl/well of 3 μg/ml rHusTNFRI (ProSpec-Tany TechnoGene Ltd, Rehovot, Isreal) in 18MQ-cm H2O overnight at 4 °C and blocked with 1% BSA and 0.05% Tween-20 in PBS for 1 h at 4 °C. Aliquot of 10 μM of biotin-labelled TNF70–80 (Auspep Pty, Ltd., Tullamarine, VIC, Australia) plus various concentrations of unlabelled TNF70–80 or control peptide were added to each well and incubated for 3 h at 4 °C. The wells were washed four times with wash buffer (PBS containing 0.05% Tween-20) and the plates were incubated with 100 μl/well of poly-horseradish peroxidase streptavidin conjugate (1/6000 dilution in 1% BSA and 0.05% Tween-20 in PBS) for 45 min at 4 °C. Wells were washed four times with wash buffer and bound enzyme detected by the addition of 3′,3′,5′,5′-tetramethylbenzidine (TMB) substrate (Sigma-Aldrich, Castle Hill, NSW, Australia). Absorbance was measured using dual filter at 570/450 nm on a Dynatech MR700 Plate Reader (Guernsey, Channel Islands).

[5] = Procedure: TNF70–80 and its control ([…]) were synthesised by Auspep Pty Ltd, (Tullamarine, VIC, Australia) and Genscript Biotech (Piscataway, NJ, USA). […] The sequence from the natural TNF-α was modified by substitution of isoleucine for leucine at residue 79. […] Fresh dilutions of the peptide were prepared daily in HBSS or HBSS with 1% BSA. The His-tagged M4 (HM4) ∆HM4 (LKPGTT) was purchased from Auspep Pty Ltd (Tullamarine, VIC, Australia). […] Peptides were stored at −20 °C and solutions were made in HBSS or RPMI prior to use.
[6] = tested on: p38 activity in 70Z/3 pre-B cells; test: p38 activity in 70Z/3 pre-B cells, mock- or TNFRI (WT/mutant)-transfected; type: cell-based, mouse
Procedure: The study was approved by the CYWHS Human Ethics Committee (project number HREC 595/12/10). Neutrophils were prepared from peripheral blood of healthy donors, who had given informed consent, by a rapid single-step technique. Blood was layered on to Hypaque-Ficoll (Pharmacia Biotech., Uppsala, Sweden), d = 1.114, and centrifuged at 600 × g for 20–30 min. After centrifugation, the leukocytes resolved into two bands and the neutrophils were harvested from the second band. The preparations of neutrophils were routinely of >99% viability and >98% purity. These were either used as cells in suspension or as adhered neutrophils by adding the cells to plasma-coated plates as previously described. The 70Z/3 pre-B cell line, kindly provided by Dr. W. Langdon, University of Western Australia, Perth, Australia, are mouse pre-B lymphocytes which lack binding sites for human TNF and are non-responsive to the cytokine[18],[19]. The cells were maintained in RPMI 1640 medium with 4.5 g/L glucose, 2 mM L-glutamine, […] 2-mercaptoethanol and 10% FCS in an atmosphere of 95% air and 5% CO2. The monocytic cell line, MonoMac 6 was kindly provided by Dr. H.W.L. Ziegler-Heitbrock (Institute of Clinical Chemistry and Pathobiochemistry, Klinikum rechts der Isar, Technische Universitat, Munchen, Germany) and maintained in RPMI 1640 supplemented with 10% heat-inactivated foetal calf serum, 1 mM pyruvate, glutamine and antibiotics. A mouse fibroblastic fibrosarcoma cell line WEHI-164, clone 13 (from the ATCC) was obtained from Dr. Geeta Chauhdri (John Curtain School of Medical Research, Australian National University, Canberra, Australia). The cells were maintained in RPMI-1640 medium as above and the cells were detached with 0.25% trypsin EDTA. HEK 293T cells were maintained in DMEM, supplemented with 10% foetal calf serum. […]
(§2) p38 activity was determined, after immunoprecipitation, as described using myelin basic protein (MPB) as a substrate for the kinase in the presence of ^32P-ATP[35]. […]

macrophage = details: ability to stimulate nitric oxide production in macrophage; cited from earlier work
Excerpt: The modification extended the serum half-life ...

p38 MAPK = test: p38 activation in neutrophils treated with TNF70–80; type: cell-based, human; details: neutrophils incubated 15 min with peptide
Procedure: (§3) The study was approved by the CYWHS Human Ethics Committee (project number HREC 595/12/10). Neutrophils were prepared from peripheral blood of healthy donors, who had given informed consent, by a rapid single-step technique. Blood was layered on to Hypaque-Ficoll (Pharmacia Biotech., Uppsala, Sweden), d = 1.114, and centrifuged at 600 × g for 20–30 min. After centrifugation, the leukocytes resolved into two bands and the neutrophils were harvested from the second band. The preparations of neutrophils were routinely of >99% viability and >98% purity. These were either used as cells in suspension or as adhered neutrophils by adding the cells to plasma-coated plates as previously described. The 70Z/3 pre-B cell line, kindly provided by Dr. W. Langdon, University of Western Australia, Perth, Australia, are mouse pre-B lymphocytes which lack binding sites for human TNF and are non-responsive to the cytokine[18],[19]. The cells were maintained in RPMI 1640 medium with 4.5 g/L glucose, 2 mM L-glutamine, […] 2-mercaptoethanol and 10% FCS in an atmosphere of 95% air and 5% CO2. […]
as §2

[7] = tested on: p38 activity in HEK 293T cells; test: p38 activity in HEK 293T cells stably transfected with TRAF2, ∆TRAF2 or empty vector; type: cell-based; details: 10 μM
Procedure: as §3, §2

[8] = tested on: Ross River virus (RRV)-infected mice; details: cited from earlier work
Excerpt: Given that the TNFR peptide sequence covers the minimal region that is required for TNF to activate p38, it is likely the peptide alters the dynamics of the TNF–TNFR interaction—allowing not only TNF binding to TNFRI, but also the activation of the other signalling molecules that the receptor normally activates. This implies that other regions of TNFRI mediate the activation of the other signalli ...

C[S+]([O-])c1ccc(-c2nc(-c3ccncc3)c(-c3ccc(F)cc3)[nH]2)cc1 (stereo not drawn) [SB203580, reference compound]
effect on TNF70–80-induced respiratory burst response (human neutrophils; neutrophils pre-incubated with inhibitor for 10 min before TNF70–80): inhibited

C[C@@H](O)[C@H](NC(=O)[C@@H](NC(=O)CN)[C@@H](C)O)C(=O)O [TNFRI209–211] (H-Gly-Thr-Thr-OH)
IC50 [1]: 146 µM
IC50 [2]: 123 µM

EDSGTT [TNFRI206–211]
IC50 ([1]; TNF-RM (conditioned medium of Staphylococcus aureus-stimulated mononuclear leukocytes, 1:10 in HBSS) treated with peptide, n = 3, read-out: IC50, inhibition of neutrophil response to TNF-rich medium): 216 µM
IC50 [2]: 171 µM

GEDTST [scrambled control of TNFRI206–211]
binding to TNF, solid phase assay (TNF): did not bind
effect on TNF-induced CD11b expression in neutrophils [3]: Lack of effect

GGDPGIVTH [scrambled peptide (GGDPGIVTH), control peptide of TNF70–80 (…)]
binding to immobilised TNFR1 (competition with biotinylated TNF70–80) [4]: Lack of binding

LKPGTT [∆HM4]
effect on TNF70–80-stimulated CL production in human neutrophils (human neutrophils; four experiments): dose-dependent suppression

PSTHVLITHTI [TNF70–80]
serum half-life ([5]; after substitution of isoleucine for leucine at residue 79, no method or species printed): > 90 min
water solubility ([5]; after substitution of isoleucine for leucine at residue 79, relative to natural sequence): increased
p38 activity effect in M4 TNFRI mutant-transfected cells ([6]; 70Z/3 cells, M4 TNFRI mutant, 10 μM, p = 0.11, n = 3): retained, albeit appearing reduced
increase in p38 activity ([6]; WT TNFRI- and M1 TNFR1-transfected 70Z/3 cells, 10 μM, 5 min, three experiments): ~ 2.5 fold
p38 activity in 70Z/3 pre-B cells lacking TNFRs ([6]; untransfected (mock) cells): failed to stimulate the activity of p38
superoxide production, lucigenin-dependent chemiluminescence (human neutrophils; neutrophils, chemiluminescence over 45 min): stimulated the production of superoxide in a similar manner to TNF
concentration that equates to 1000 U/ml of TNF (macrophage): 5.0 µg/mL
p38 MAPK activation in neutrophils (p38 MAPK): activation of p38 MAPK
p38 activity in cells transfected with dominant-negative TRAF2 (∆TRAF2) [7]: but not in those transfected with ∆TRAF2
p38 activity in cells transfected with wild-type TRAF2 or an empty vector [7]: enhanced the activity of p38

QIENVKGTEDSGTT [TNFRI198–211]
IC50 [2]: 50 µM

etanercept
outcome in RRV-infected mice versus untreated RRV-infected mice [8]: decreased weight gain, higher viral titre in muscle, joints and blood, associated with a greater degree of tissue damage and inflammatory cell recruitment
